{"source": "patent US9504685B2", "about": "“Method for treating a pulmonary hypertension condition” (Gilead Sciences, Inc., priority 2006, dated 2016)", "key": {"p450": {"test_system": "p450", "conditions": "cited from earlier work"}, "subjects with PAH": {"test_system": "subjects with PAH", "conditions": "for Subjects who died: 12 weeks", "protocol": "All adverse effects (AEs) reported during the course of the study were reported and summaries of all AEs were prepared showing frequencies and percentages of: • (a) subjects with at least 1 AE; • (b) subjects with possibly or probably drug-related AEs; • (c) subjects with at least 1 serious AE (SAE); • (d) subjects with an AE leading to study discontinuation; and • (e) subjects who died. […]\nThe safety population was defined as all randomized subjects who received at least 1 dose of study drug. Subjects were considered as belonging to a treatment group according to the highest actual treatment dose received. Any subject who received 10 mg ambrisentan on any day was included in the 10 mg group for safety analyses in the entire study. Any subject who received 5 mg ambrisentan on any day and never received 10 mg ambrisentan on any day was included in the 5 mg group for safety analyses in the entire study. Otherwise, any subject who received only placebo was included in the placebo group for safety analyses in the study."}, "[1]": {"conditions": "male subjects, 10 mg once daily"}}, "note": "Like-named read-outs stand apart in the source and are kept apart here."}
{"smiles": "COC(c1ccccc1)(c1ccccc1)[C@H](Oc1nc(C)cc(C)n1)C(=O)O", "note": "[ambrisentan]", "values": [{"measurement": "drug interactions (p450 induction or inhibition)", "setting": "p450", "result": "no p450 induction or inhibition"}, {"measurement": "subjects who died during the study or within 30 days of the last dose", "setting": "subjects with PAH; 5 mg once daily", "result": 1.5, "unit": "%"}, {"measurement": "Subjects who died", "setting": "subjects with PAH; 5 mg once daily", "result": "1 (1.5) subjects (% of safety populati"}, {"measurement": "subjects who died during the study or within 30 days of the last dose", "setting": "subjects with PAH; 10 mg once daily", "result": 1.5, "unit": "%"}, {"measurement": "Subjects who died", "setting": "subjects with PAH; 10 mg once daily", "result": "1 (1.5) subjects (% of safety populati"}, {"measurement": "Subjects who died", "setting": "subjects with PAH; combined 5 mg and 10 mg groups", "result": "2 (1.5) subjects (% of safety populati"}, {"measurement": "effect on PT, INR or weekly warfarin-type anticoagulant dose", "setting": "subjects with PAH; in vivo", "result": "no effect"}, {"measurement": "male fertility hormones and serial semen samples", "setting": "subjects with PAH; in vivo", "result": "did not suggest that ambrisentan was associated with an adverse effect on male reproductive potential"}, {"measurement": "mean changes from baseline at Week 12 for serum ALT and AST", "setting": "subjects with PAH; in vivo", "result": "no notable mean changes"}, {"measurement": "subjects who developed elevated serum aminotransferase concentrations >3×ULN", "setting": "subjects with PAH; in vivo", "result": "None"}, {"measurement": "change from baseline in testosterone concentration at Week 12", "setting": "subjects with PAH; male subjects, 5 mg once daily", "result": "-0.099 ± 3.48", "unit": "nmol/L"}, {"measurement": "change from baseline in testosterone concentration at Week 12", "setting": "subjects with PAH; [1]", "result": "-0.099 ± 3.48", "unit": "nmol/L"}, {"measurement": "change over baseline in FSH concentration at Week 12", "setting": "subjects with PAH; [1]", "result": "+1.83 IU/liter"}]}
